According to US20150025131A1 (priority 2013, published 2015):
Converted amounts (≈) assume the structure as drawn. “Also recorded” adds a separate entry of the source. Read-outs that look alike come from different tables or passages of the source.

Tests used:
[1] = MTT cytotoxicity assay, MDBK; type: cell-based, bovine; details: bovine, MDBK bovine kidney cells, 48 h incubation, read-out: Cytotoxicity (IC50 μg/mL) MDBK cells
Protocol: (§1) Cell cytotoxicity assay was performed using three different cell lines NIH 3T3 (mouse embryo, fibroblast cells), CC1 (rat, epithelial, liver cell) and MDBK (bovine kidney) cells using MTT (3-[4,5-dimethylthiazole-2-yl]-2,5-diphenyl-tetrazolium bromide) colorimetric assay. Briefly 3T3 were grown in DMEM, supplemented with 10% of fetal bovine serum (FBS), and 1% penicillin-streptomycin whereas CC1 (rat epithelial liver cells) were cultured in EMEM, 2 mM Glutamine, 1% Non-Essential Amino Acids (NEAA), 20 mM HEPES, 10% Foetal Bovine Serum (FBS) and 1% penicillin-streptomycin, and MDBK cells were grown in 10% of fetal bovine serum (FBS) in 75 cm^2 flask, and incubated in 5% CO2 incubator at 37° C. until they attain 70% confluency. Cells were then harvested by centrifuging at 200 g for 5 min at 25° C., counted using heamocytometer and their concentration was adjusted to 6×10^4 cells/mL. 100 μL of Cells were then plated in 96 well plate and incubated overnight. Next day the supernatant was carefully removed and 200 μL of fresh medium was added with three different concentration of compound (1, 10, 50) μg/mL. […] The extent of MTT reduction to formazan within cells was calculated by measuring the absorbance at 540 nm; using a micro plate reader (Spectra Max plus 340, Molecular Devices, Calif., USA). […] The percent inhibition was calculated by using the following formula: […]

MDBK bovine kidney cells = experiment: MTT cytotoxicity assay, MDBK; type: cell-based
Protocol: as §1

serum glutathione = experiment: Adjuvant induced arthritis model, serum glutathione; type: in vivo, Sprague Dawley rats; details: AIA rats, daily intraperitoneal; Patuletin 25 mg/kg, indomethacin 5 mg/kg
Protocol: (§2) All studies were carried out using Female Sprague Dawley (SD) rats weighing 150-250 gms. Animals were kept at 21±2° C. and on a 12-h light/dark cycle, received standardized pelleted diet and tap water. Experiments were performed under the ethical guidelines of the International Association for the study of pain in conscious animals. Each group contains 12 animals with randomly distributed weights into each treatment group.
Arthritis was induced by injecting freshly prepared 100 μL of 1 mg suspension of lyophilized Mycobacterium tuberculosis H37Ra (MT H37Ra; DIFCO Laboratories, Detroit, Mich., USA), subcutaneously at the rat tail base using sterile hypodermic needle. Inoculation was carried out under anesthesia with a combination of 20 mg/kg ketamine and 5 mg/kg xylazine, injected intraperitoneally. Compound and the reference drug were administered daily, intraperitoneally using sterile syringes. The positive control received vehicle (5% DMSO+PBS) or saline only; treatment groups received test compounds (25 mg/kg), whereas reference group received indomethacin (5 mg/kg). […]
The concentration of reduced form of glutathione was determined in serum using the colorimetric Quantichrome ™ Glutathione assay kit (Bioassay Systems) in duplicates, using 96 well plates and according to manufacturer's instructions. The OD recorded at 412 nm which directly represents the level of glutathione in serum.

serum nitric oxide = experiment: Adjuvant induced arthritis model, serum nitric oxide; type: in vivo, Sprague Dawley rats; details: AIA rats, daily intraperitoneal; Patuletin 25 mg/kg, indomethacin 5 mg/kg
Protocol: as §2
(§3) Arthritis was induced by injecting freshly prepared 100 μL of 1 mg suspension of lyophilized Mycobacterium tuberculosis H37Ra (MT H37Ra; DIFCO Laboratories, Detroit, Mich., USA), subcutaneously at the rat tail base using sterile hypodermic needle. […]
(§4) Peroxide (PO) and nitric oxide (NO), in serum were determined in the serum samples of both the normal and arthritic groups, using quantitative colorimetric assay kits, i.e., the Quantichrom ™ Nitric Oxide Assay Kit, and the Quantichrome™ Peroxide assay kit Diox-250 (BioAssay Systems, Hayward, Calif., USA). […] The samples were analyzed in duplicates using 96-well plate and the plate was read at 540 nm. The Quantichrome™ Peroxide assay kit Diox −250 system is an improved method which utilizes the oxidation of Fe^++ by peroxide present in the analyzed sample resulting in formation of purple complex that gives the accurate measure of peroxide level in the sample when read at 540-610 nm.

serum peroxide = experiment: Adjuvant induced arthritis model, serum peroxide; type: in vivo, Sprague Dawley rats; details: AIA rats, daily intraperitoneal; Patuletin 25 mg/kg, indomethacin 5 mg/kg
Protocol: as §2, §3, §4

[2] = system: ROS production from PMA activated RAW. 267 cells (murine macrophages); experiment: Lucigenin enhanced (myeloperoxidase independent) oxidative burst; type: cell-based; details: Mus musculus, Macrophage
Protocol: Intracellular effect was determined using human peripheral whole blood phagocytes and isolated neutrophils and from mice peritoneum macrophages, where luminol-enhanced chemillumenescence assay was applied. The effect on myeloperoxidase independent ROS production was determined using lucigenin on murine macrophages RAW.267 cells. […] Table 2. […] 267 cells (murine macrophages). DPI is used as standard drug. Reading presents mean±SD of three determinations.

rheumatoid factor = experiment: Adjuvant induced arthritis model, serum RA factor; type: in vivo, Sprague Dawley rats; details: AIA rats, daily intraperitoneal; Patuletin 25 mg/kg, indomethacin 5 mg/kg
Protocol: as §2
Arthritis was induced by injecting freshly prepared 100 μL of 1 mg suspension of lyophilized Mycobacterium tuberculosis H37Ra (MT H37Ra; DIFCO Laboratories, Detroit, Mich., USA), subcutaneously at the rat tail base using sterile hypodermic needle. Inoculation was carried out under anesthesia with a combination of 20 mg/kg ketamine and 5 mg/kg xylazine, injected intraperitoneally. Compound and the reference drug were administered daily, intraperitoneally using sterile syringes. […]
Measurement of RA factor in rat serum was determined using Tina-quant RFII Kit (Roche Diagnostics, USA) and automated analyzers according to manufacturer's instructions. The test principle involves the reaction of latex bound heat inactivated IgG (antigen) with RF antibodies in the sample to form Ag/Ab complex resulting in agglutination which can be measured turbidimetrically.

## COc1c(O)cc2oc(-c3ccc(O)c(O)c3)c(O)c(=O)c2c1O [Patuletin, 3,5,7,3′,4′-pentahydroxy-6-methoxy flavones]
[1]
  IC50 at 48 h: 12.6 ± 0.4 µg/mL (≈ 37.9 µM)
MDBK bovine kidney cells
  cytotoxicity on MDBK bovine kidney cells (in words): no cytotoxicity
Serum glutathione
  level of glutathione in serum versus arthritic control group: non-significant increase; also recorded: mild increase
Serum nitric oxide
  level of nitric oxide in serum versus arthritic control group: marked reduction; also recorded: significant decrease
Serum peroxide
  level of peroxide in serum versus arthritic control group: decrease; also recorded: non-significant reduction
[2]; compared to DPI as standard drug, read-out: inhibition of extracellular ROS species (IC50), unit inferred
  IC50: 0.3 µg/mL
[2]; lucigenin enhanced, PMA activated RAW. 267 cells, read-out: Myeloperoxidase independent Oxidative Burst (IC50 μg/mL) on macrophages
  IC50: 0.3 ± 0.03 µg/mL
Rheumatoid factor
  level of RA factor (rheumatoid factor) in serum versus arthritic control group: marked decrease
